42 compounds from patent US8354402B2, “Polyarylcarboxamides useful as lipid lowering agents” (Janssen Pharmaceutica N.V., priority 2000, dated 2013) can be followed below.

SMILES strings stand for the structures. A value given as a limit tells only on which side of the number the result lay.

The test system of the assay is ApoB secretion, HepG2 cells. Description: Quantification of the secretion of ApoB (HepG2 cells, immunoprecipitation, scintillation counting). The assay is classed as cell-based. As to conditions: Homo sapiens, HepG2, 24 h, 24 hours of incubation. As for the experimental part: C.1. Quantification of the Secretion of ApoB
HepG2 cells were cultured in 24-well plates in Minimal Essential Medium Rega 3 containing 10% fetal calf serum. Rega 3 has the following composition: CaCl2 (264 μg/ml), KCl (400 μg/ml), MgSO4.7H2O (200 μg/ml), NaCl (6800 μg/ml), NaHCO3 (850 μg/ml), NaH2PO4.H2O (158 μg/ml), D-glucose (1000 μg/ml), phenol red (10 μg/ml), L-alanine (8.9 μg/ml), L-arginine HCl (12 μg/ml), L-asparagine.H2O (15 μg/ml), L-aspartic acid (13.3 μg/ml), L-cystine (24 μg/ml), L-glutamic acid (14.7 μg/ml), glycine (7.5 μg/ml), L-histidine.HCl .H2O (42 μg/ml), L-isoleucine (52 μg/ml), L-leucine (52 μg/ml), L-lysine.HCl (72.5 μg/ml), L-methionine (15 μg/ml), L-phenylalanine (32 μg/ml), L-proline (11.5 μg/ml), L-serine (10.5 μg/ml), L-threonine (48 μg/ml), L-tryptophan (10 μg/ml), L-tyrosine (36 μg/ml), L-valine (46 μg/ml), D-Ca pantothenate (1 μg/ml), choline chloride (1 μg/ml), folic acid (1 μg/ml), 1-enositol (2 μg/ml), nicotinamide (1 μg/ml), pyridoxal HCl (1 μg/ml), riboflavin (0.1 μg/ml) and thiamine HCl (1 μg/ml).
At 70% confluency, the medium was changed and the test compound or carrier (dimethylsulfoxide, 0.4% final concentration) was added. After 24 hours of incubation, the medium was transferred to Eppendorf tubes and cleared by centrifugation. A sheep antibody directed against either apo B was added to the supernatant and the mixture was kept at 8° C. for 24 hours. Then, rabbit anti-sheep antibody was added and the immune complex was allowed to precipitate for 24 hours at 8° C. The immunoprecipitate was pelleted by centrifugation for 25 minutes at 1320 g and washed twice with a buffer containing 40 mM 4-morpholinepropanesulfonic acid, 40 mM NaH2PO4, 100 mM NaF, 0.2 mM dithiothreitol, 5 mM ethylenediamine tetraacetic acid, 5 mM ethylenebis (oxyethylenenitrilo) tetraacetic acid, 1% Triton-X-100, 0.5% sodium deoxycholate, 0.1% sodium dodecylsulphate, 0.2 μM leupeptin and 0.2 μM phenylmethylsulphonylfluoride. Radioactivity in the pellet was quantified by liquid scintillation counting.
Resulting IC50 values are enumerated in Table C.1 for a number of compounds No. 1 to No. 123.

Broadly, the IC50 is the concentration at which inhibition is half-maximal. A high value points to weaker potency in that assay. In turn, `CCCNC(=O)C(CN1CCN(c2ccc(NC(=O)c3ccccc3-c3ccc(C(F)(F)F)cc3)cc2)CC1)c1ccccc1` (stereo not drawn) [Co. No. 63, N-[4-[4-[3-oxo-2-phenyl-3-(propylamino)propyl]-1-piperazinyl]phenyl]-4′-(trifluoromethyl)-[1,1′-biphenyl]-2-carboxamide] showed a concentration for half-maximal inhibition (IC50) of 122 nM.
With `CCOC(=O)C(c1ccccc1)N1CCCN(c2ccc(NC(=O)c3ccccc3-c3ccc(C(F)(F)F)cc3)cc2)CC1` (stereo not drawn) [Co. No. 120] the figure was 357 nM; with `CCNC(=O)C(c1ccc(F)cc1)C1CCN(c2ccc(NC(=O)c3ccccc3-c3ccc(C(F)(F)F)cc3)cc2)CC1` (stereo not drawn) [Co. No. 256], 15.1 nM; with `CC(C)CNC(=O)C(c1ccccc1)N1CCC(c2ccc(NC(=O)c3ccccc3-c3ccc(C(F)(F)F)cc3)cc2)CC1` (stereo not drawn) [Co. No. 74], at most 30 nM.
Next, `CCCNC(=O)C(c1ccccc1)C1CCN(c2ccc(NC(=O)c3ccccc3-c3ccccc3C(F)(F)F)cc2)CC1` (stereo not drawn) [Co. No. 130]: 360 nM; `O=C(Nc1ccc(N2CCC(C(C(=O)NCc3ccccc3)c3ccccc3)CC2)cc1)c1ccccc1-c1cccc2ccccc12` (stereo not drawn) [Co. No. 136]: 148 nM.
Next, `O=C(Nc1ccc(N2CCC(C(C(=O)NCc3ccccc3)c3ccccc3)CC2)cc1)c1ccccc1-c1cc(Cl)cc(Cl)c1` (stereo not drawn) [Co. No. 50]: 93.8 nM.
The compound `Cc1ccccc1-c1ccccc1C(=O)Nc1ccc(N2CCC(C(C(=O)Nc3ccccc3)c3ccccc3)CC2)cc1` (stereo not drawn) [Co. No. 107] had an IC50 of 292 nM.
With `CCCNC(=O)C(c1ccccc1)N1CCCN(c2ccc(NC(=O)c3ccccc3-c3ccc(C(F)(F)F)cc3)cc2)CC1` (stereo not drawn) [Co. No. 123] the figure was 241 nM.
With `COC(=O)C(c1ccccc1)N1CCN(c2cc(F)c(NC(=O)c3ccccc3-c3ccc(C(F)(F)F)cc3)c(F)c2)CC1` (stereo not drawn) [Co. No. 204] the figure was 428 nM.
With `O=C(Nc1ccc(N2CCC(C(C(=O)Nc3ccccc3)c3ccccc3)CC2)cc1)c1ccccc1-c1ccc2ccccc2c1` (stereo not drawn) [Co. No. 138] the figure was 99.3 nM; with `COC(=O)C(c1ccccc1)N1CCN(c2ccc(NC(=O)c3ccccc3-c3ccc(C(F)(F)F)cc3)cc2C)CC1` (stereo not drawn) [Co. No. 211], 19.9 nM.
The compound `O=C(Nc1ccc(N2CCC(C(C(=O)Nc3ccccc3)c3ccccc3)CC2)cc1)c1ccccc1-c1cccc2ccccc12` (stereo not drawn) [Co. No. 137] showed an IC50 of 1770 nM.
Compound `COC(=O)C(c1ccccc1)N1CCN(c2ccc(NC(=O)c3cc(C)ccc3-c3ccc(C(F)(F)F)cc3)cc2)CC1` (stereo not drawn) [Co. No. 189] gave a half-maximal inhibitory concentration (IC50) of 105 nM.
With `CCNC(=O)C(c1ccccc1)C1CCN(c2ccc(NC(=O)c3ccccc3-c3cccc(C(F)(F)F)c3)cc2)CC1` (stereo not drawn) [Co. No. 96] the figure was 32.1 nM; with `CCCNC(=O)C(c1ccccc1)C1CCN(c2ccc(NC(=O)c3ccccc3-c3cccc(N)c3)cc2)CC1` (stereo not drawn) [Co. No. 133], over 3000 nM.
As for `O=C(Nc1ccc(N2CCC(C(C(=O)Nc3ccccc3)c3ccccc3)CC2)cc1)c1ccccc1-c1ccc(F)cc1` (stereo not drawn) [Co. No. 114], the IC50 was 836 nM.
With `CCNC(=O)C(c1ccccc1)C1CCN(c2ccc(NC(=O)c3ccccc3-c3ccc(Cl)cc3)cc2)CC1` (stereo not drawn) [Co. No. 91] the figure was 8.69 nM; with `CCNC(=O)C(c1ccccc1)C1CCN(c2ccc(NC(=O)c3ccccc3-c3ccc(OC)cc3)cc2)CC1` (stereo not drawn) [Co. No. 93], 72.3 nM; with `CCNC(=O)C(c1ccccc1)N1CCN(c2ccc(NC(=O)c3ccccc3-c3ccc(C(F)(F)F)cc3)c(C)c2)CC1` (stereo not drawn) [Co. No. 215], under 30 nM.
With `CCNC(=O)C(c1ccccc1)N1CCN(c2ccc(NC(=O)c3cc(OC)ccc3-c3ccc(C(F)(F)F)cc3)cc2)CC1` (stereo not drawn) [Co. No. 195] the figure was 89.7 nM; with `CCCNC(=O)C(c1ccccc1)C1CCN(c2ccc(NC(=O)c3ccccc3-c3cccc4ccccc34)cc2)CC1` (stereo not drawn) [Co. No. 42], at least 3000 nM; with `O=C(Nc1ccc(N2CCN(CC(C(=O)NCC(F)(F)F)c3ccccc3)CC2)cc1)c1ccccc1-c1ccc(C(F)(F)F)cc1` (stereo not drawn) [Co. No. 66], 79.6 nM.
In turn, `COC(=O)C(c1ccccc1)N1CCC(c2ccc(NC(=O)c3ccccc3-c3ccccc3)cc2)CC1` (stereo not drawn) [Co. No. 143] showed an IC50 of 234 nM.
In turn, `CCNC(=O)C(c1ccccc1)C1CCN(c2ccc(NC(=O)c3ccccc3-c3ccccc3C)cc2)CC1` (stereo not drawn) [Co. No. 85, N-[4-[4-[2-(ethylamino)-2-oxo-1-phenylethyl]-1-piperidinyl]phenyl]-2′-methyl-[1,1′-biphenyl]-2-carboxamide] showed an IC50 of 129 nM.
With `COC(=O)C(c1ccccc1)C1CCN(c2ccc(NC(=O)c3ccccc3-c3ccccc3)cc2)CC1` (stereo not drawn) [Co. No. 157] the figure was 107 nM.
On to `O=C(Nc1ccc(N2CCC(C(C(=O)Nc3ccccc3)c3ccccc3)CC2)cc1)c1ccccc1Cc1ccccc1` (stereo not drawn) [Co. No. 35], for which the half-inhibitory concentration (IC50) is at least 3000 nM.
With `CCCNC(=O)C(c1ccccc1)C1CCN(c2ccc(NC(=O)c3ccccc3Oc3ccccc3)cc2)CC1` (stereo not drawn) [Co. No. 19] the figure was 264 nM; with `CCCNC(=O)C(c1ccccc1)C1CCN(c2ccc(NC(=O)c3ccccc3C(=O)c3ccccc3)cc2)CC1` (stereo not drawn) [Co. No. 15], 205 nM; with `C=CCOC(=O)C(c1ccccc1)N1CCC(c2ccc(NC(=O)c3ccccc3-c3ccccc3)cc2)CC1` (stereo not drawn) [Co. No. 154], 2320 nM.
With `CCNC(=O)C(c1ccccc1)C1CCN(c2ccc(NC(=O)c3ccccc3-c3cc(Cl)cc(Cl)c3)cc2)CC1` (stereo not drawn) [Co. No. 49] the figure was 236 nM.
The compound `O=C(Nc1ccc(N2CCC(C(C(=O)Nc3ccccc3)c3ccccc3)CC2)cc1)c1ccccc1-c1cccc(C(F)(F)F)c1` (stereo not drawn) [Co. No. 118] gave a concentration for half-maximal inhibition (IC50) of 127 nM.
Next, `COC(=O)C(c1ccccc1)N1CCN(c2ccc(NC(=O)c3c(F)cccc3-c3ccc(C(F)(F)F)cc3)cc2)CC1` (stereo not drawn) [Co. No. 187]: 41.1 nM.
Next, `CCCNC(=O)C(c1ccccc1)C1CCN(c2ccc(NC(=O)c3ccccc3-c3ccccc3OC)cc2)CC1` (stereo not drawn) [Co. No. 43]: 1770 nM; `O=C(Nc1ccc(N2CCC(C(C(=O)NCc3ccccc3)c3ccccc3)CC2)cc1)c1ccccc1-c1ccccc1Cl` (stereo not drawn) [Co. No. 103]: 73.6 nM; `COC(=O)C(c1ccccc1)N1CCN(c2ccc(NC(=O)c3ccccc3-c3ccc(C(F)(F)F)cc3)c(C(F)(F)F)c2)CC1` (stereo not drawn) [Co. No. 206]: 783 nM.
On to `O=C(Nc1ccc(N2CCC(C(C(=O)OCCc3ccccc3)c3ccccc3)CC2)cc1)c1ccccc1-c1ccc(C(F)(F)F)cc1` (stereo not drawn) [Co. No. 250], for which the half-maximal inhibitory concentration (IC50) was 233 nM.
Next, `CCCCCNC(=O)C(CN1CCN(c2ccc(NC(=O)c3ccccc3-c3ccc(C(F)(F)F)cc3)cc2)CC1)c1ccccc1` (stereo not drawn) [Co. No. 65]: 240 nM.
With `CCCCNC(=O)C(CN1CCN(c2ccc(NC(=O)c3ccccc3-c3ccc(C(F)(F)F)cc3)cc2)CC1)c1ccccc1` (stereo not drawn) [Co. No. 64] the figure was 159 nM; with `CCNC(=O)C(c1ccccc1)N1CCN(c2ccc(NC(=O)c3ccccc3-c3ccc(C(F)(F)F)cc3)cc2Cl)CC1` (stereo not drawn) [Co. No. 213], under 30 nM; with `O=C(Nc1ccc(N2CCC(C(C(=O)Nc3ccccc3)c3ccccc3)CC2)cc1)c1cccc2c1Cc1ccccc1-2` (stereo not drawn) [Co. No. 29], at least 3000 nM.
In turn, `CCNC(=O)C(c1ccccc1)N1CCN(c2ccc(NC(=O)c3ccccc3-c3ccccc3)cc2)CC1` (stereo not drawn) [Co. No. 139] gave an IC50 of 86.1 nM.
